Conditions: 101.33 kPa, Liquid, Vibrating tube method

C1CCCNCC1 [azacycloheptane]
Conditions	mass density [kg/m3]
273.16 K	898.81
273.66 K	898.36
274.16 K	897.92
274.66 K	897.48
275.16 K	897.04
275.66 K	896.6
276.16 K	896.16
276.66 K	895.72
277.16 K	895.28
277.66 K	894.84
278.16 K	894.4
278.66 K	893.96
279.16 K	893.51
279.66 K	893.07
280.16 K	892.63
280.66 K	892.19
281.16 K	891.75
281.66 K	891.31
282.16 K	890.87
282.66 K	890.42
283.16 K	889.98
283.66 K	889.54
284.16 K	889.1
284.66 K	888.66
285.15 K	888.22
285.66 K	887.77
286.16 K	887.33
286.66 K	886.89
287.16 K	886.45
287.66 K	886
288.16 K	885.56
288.66 K	885.12
289.16 K	884.68
289.66 K	884.23
290.16 K	883.79
290.66 K	883.35
291.15 K	882.91
291.65 K	882.47
292.16 K	882.03
292.65 K	881.58
293.15 K	881.15
293.65 K	880.71
294.15 K	880.26
294.65 K	879.82
295.15 K	879.38
295.65 K	878.94
319.15 K	858.06
319.65 K	857.61
320.15 K	857.17
320.65 K	856.72
321.15 K	856.28
321.65 K	855.83
322.15 K	855.39
322.65 K	854.94
323.15 K	854.49
323.65 K	854.05
324.15 K	853.6
324.65 K	853.15
325.15 K	852.71
325.66 K	852.26
326.16 K	851.81
326.66 K	851.37
327.15 K	850.92
327.66 K	850.47
328.16 K	850.03
328.66 K	849.58
329.16 K	849.13
329.66 K	848.69
330.16 K	848.24
330.65 K	847.79
331.16 K	847.35
331.66 K	846.9
332.15 K	846.45
332.66 K	846
333.16 K	845.55
333.65 K	845.11
334.16 K	844.66
334.65 K	844.21
335.16 K	843.76
335.65 K	843.31
336.16 K	842.86
336.66 K	842.42
337.16 K	841.96
337.66 K	841.52
338.16 K	841.07
338.66 K	840.62
339.16 K	840.17
339.66 K	839.72
340.16 K	839.27
340.66 K	838.82
341.16 K	838.37
341.65 K	837.92

Source: the NIST ThermoML archive (doi:10.1016/j.tca.2008.12.007)
